This note sets out measurements from ChEMBL document CHEMBL3243920, “Quantitative structure-activity relationships of chymotrypsin. On the predictive value of correlation equations” (J Med Chem, 1977).

The experiment in a line: Inhibition of chymotrypsin (unknown origin). The conditions noted are these: Homo sapiens.
In turn, `CC(=O)Nc1ccccc1` yielded a log1/Ki of 1.89.

In turn, `NC(=O)CCc1c[nH]c2ccccc12` displayed a log1/Ki of 2.64.

Regarding `COc1ccc(NC=O)cc1`, the log1/Ki is 2.06.

Take `CC(=O)c1ccc(NC=O)cc1`: the log1/Ki amounted to 1.72.

`N#Cc1ccc(NC=O)cc1` showed a log1/Ki of 1.9.

Turning to `NC(=O)CCc1ccccc1`, the log1/Ki worked out at 2.15.

Molecule `O=C(O)C(Cc1ccc(F)cc1F)NC(=O)C(F)(F)F` (stereo not drawn) came in with a log1/Ki of 2.35.

In the case of `O=C(CCl)NCCc1ccccc1`, the log1/Ki amounted to 2.

`Cc1ccc(NC=O)cc1` gave a log1/Ki of 2.52.

In the case of `O=C(NCCc1c[nH]c2ccccc12)C(F)(F)F`, the log1/Ki amounted to 2.92.

Turning to `CC(=O)NCCc1c[nH]c2ccccc12`, the log1/Ki worked out at 2.74.

`O=CNc1ccc([N+](=O)[O-])cc1` came in with a log1/Ki of 2.42.

As to `O=CNc1ccccc1`, the log1/Ki turned out to be 2.4.

Turning to `NC(=O)c1ccccc1`, the log1/Ki was 2.

The molecule `O=C(O)C(Cc1ccc(Br)cc1)NC(=O)C(F)(F)F` (stereo not drawn) had a log1/Ki of 3.

`NC(=O)Cc1ccccc1` showed a log1/Ki of 1.82.

Molecule `NC(=O)CCCc1ccccc1` registered a log1/Ki of 1.92.

For `CC(=O)NCCc1ccccc1`, the log1/Ki turned out to be 1.94.

The molecule `COc1cccc(NC=O)c1` returned a log1/Ki of 2.17.

`CCC(=O)Nc1ccccc1` displayed a log1/Ki of 2.18.

In the case of `O=C(O)C(Cc1ccccc1)NC(=O)C(F)(F)F` (stereo not drawn), the log1/Ki was determined as 2.1.

Take `Cc1cccc(CC(NC(=O)C(F)(F)F)C(=O)O)c1` (stereo not drawn): the log1/Ki was 2.35.

As for `CCC(=O)NCc1ccccc1`, the log1/Ki stood at 2.2.

Turning to `O=C(O)C(Cc1cccc(F)c1)NC(=O)C(F)(F)F` (stereo not drawn), the log1/Ki worked out at 2.57.

`NC(=O)CNC(=O)c1ccccc1`: the log1/Ki was 1.9.

`O=C(O)C(Cc1ccc(F)cc1)NC(=O)C(F)(F)F` (stereo not drawn) showed a log1/Ki of 2.89.

Molecule `Cc1ccc(CC(NC(=O)C(F)(F)F)C(=O)O)cc1` (stereo not drawn) gave a log1/Ki of 2.82.

Regarding `O=CNc1ccc(Cl)cc1`, the log1/Ki was 3.4.

As for `NC(=O)c1ccnc2ccccc12`, the log1/Ki was 2.08.

For `O=CNc1cccc(Cl)c1`, the log1/Ki worked out at 3.1.

The molecule `CC(=O)NCc1ccccc1` gave a log1/Ki of 2.12.

Consider `O=C(CCl)NCc1ccccc1`, for which the log1/Ki worked out at 2.31.

`COC(=O)c1nc2ccccc2[nH]1`: the log1/Ki was 2.25.
